Assay results as given in PubChem BioAssay AID1963842 (Molecular Pharmacology Branch, DTP, NCI, 2024).

Tested on: 677734-321-R-J1-PDC complex spheroid viability
Experiment: Anticancer human tumor 677734-321-R-J1-PDC patient-derived soft tissue sarcoma cell line growth inhibition [POLQ]
Details: for IC50: curve of first compound; for viability, T/C: stronger effect = lower value
Summary of the method: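 Patient-derived tumour cells were co-cultured with HUVEC and mesenchymal stem cells as multicellular spheroids at 37 °C. They were treated with POLQ inhibitors (novobiocin, ART-558, RP6685) alone or combined with other agents. Top concentrations were at or near clinical Cmax (otherwise 10 microM; SN-38 at 1 microM), decreasing in half-log steps.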

[1] = second compound 0.0316 µM, first compound 0.00316 µM
[2] = second compound 0.0316 µM, first compound 0.01 µM
[3] = second compound 0.0316 µM, first compound 0.0316 µM
[4] = second compound 0.0316 µM, first compound 0.1 µM
[5] = second compound 0.0316 µM, first compound 0.316 µM
[6] = second compound 0.0316 µM, first compound 1 µM
[7] = second compound 0.1 µM, first compound 0.00316 µM
[8] = second compound 0.1 µM, first compound 0.01 µM
[9] = second compound 0.1 µM, first compound 0.0316 µM
[10] = second compound 0.1 µM, first compound 0.1 µM
[11] = second compound 0.1 µM, first compound 0.316 µM
[12] = second compound 0.1 µM, first compound 1 µM
[13] = second compound 0.316 µM, first compound 0.00316 µM
[14] = second compound 0.316 µM, first compound 0.01 µM
[15] = second compound 0.316 µM, first compound 0.0316 µM
[16] = second compound 0.316 µM, first compound 0.1 µM
[17] = second compound 0.316 µM, first compound 0.316 µM
[18] = second compound 0.316 µM, first compound 1 µM
[19] = second compound 1 µM, first compound 0.00316 µM
[20] = second compound 1 µM, first compound 0.01 µM
[21] = second compound 1 µM, first compound 0.0316 µM
[22] = second compound 1 µM, first compound 0.1 µM
[23] = second compound 1 µM, first compound 0.316 µM
[24] = second compound 1 µM, first compound 1 µM
[25] = second compound 3.16 µM, first compound 0.00316 µM
[26] = second compound 3.16 µM, first compound 0.01 µM
[27] = second compound 3.16 µM, first compound 0.0316 µM
[28] = second compound 3.16 µM, first compound 0.1 µM
[29] = second compound 3.16 µM, first compound 0.316 µM
[30] = second compound 3.16 µM, first compound 1 µM
[31] = second compound 10 µM, first compound 0.00316 µM
[32] = second compound 10 µM, first compound 0.01 µM
[33] = second compound 10 µM, first compound 0.0316 µM
[34] = second compound 10 µM, first compound 0.1 µM
[35] = second compound 10 µM, first compound 0.316 µM
[36] = second compound 10 µM, first compound 1 µM
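Also: spheroids exposed to compounds for one week.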
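For viability, T/C in this document: 100% = vehicle DMSO treated spheroids.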

## C=CCn1c(=O)c2cnc(Nc3ccc(N4CCN(C)CC4)cc3)nc2n1-c1cccc(C(C)(C)O)n1 + Cc1cccc(N(C)C(=O)C2C(O)CCN2c2nc(C)cc(C(F)(F)F)c2C#N)c1
Second compound 0.0316 µM
  IC50: 627 nM
Second compound 0.1 µM
  IC50: 478 nM
Second compound 0.316 µM
  IC50: 661 nM
Second compound 1 µM
  IC50: 401 nM
Second compound 3.16 µM
  IC50: 537 nM
Second compound 10 µM
  IC50: 493 nM
[1]
  viability, T/C: 102%
[2]
  viability, T/C: 102%
[3]
  viability, T/C: 102%
[4]
  viability, T/C: 90.6%
[5]
  viability, T/C: 81%
[6]
  viability, T/C: 29.7%
[7]
  viability, T/C: 88.6%
[8]
  viability, T/C: 92.4%
[9]
  viability, T/C: 106%
[10]
  viability, T/C: 78.4%
[11]
  viability, T/C: 67.4%
[12]
  viability, T/C: 21.7%
[13]
  viability, T/C: 96.7%
[14]
  viability, T/C: 95.3%
[15]
  viability, T/C: 90.9%
[16]
  viability, T/C: 85.6%
[17]
  viability, T/C: 79%
[18]
  viability, T/C: 34.4%
[19]
  viability, T/C: 117%
[20]
  viability, T/C: 93.7%
[21]
  viability, T/C: 98.9%
[22]
  viability, T/C: 85%
[23]
  viability, T/C: 51.4%
[24]
  viability, T/C: 30.2%
[25]
  viability, T/C: 107%
[26]
  viability, T/C: 87.7%
[27]
  viability, T/C: 76.3%
[28]
  viability, T/C: 87.8%
[29]
  viability, T/C: 66.8%
[30]
  viability, T/C: 31.9%
[31]
  viability, T/C: 89.6%
[32]
  viability, T/C: 82.6%
[33]
  viability, T/C: 95.3%
[34]
  viability, T/C: 82.3%
[35]
  viability, T/C: 70%
[36]
  viability, T/C: 18.6%

## CC[C@@]1(O)C(=O)OCc2c1cc1n(c2=O)Cc2cc3c(CN(C)C)c(O)ccc3nc2-1 + Cc1cccc(N(C)C(=O)C2C(O)CCN2c2nc(C)cc(C(F)(F)F)c2C#N)c1
Second compound 0.0316 µM
  IC50: 26.2 nM
Second compound 0.1 µM
  IC50: 26.2 nM
Second compound 0.316 µM
  IC50: 23 nM
Second compound 1 µM
  IC50: 27.5 nM
Second compound 3.16 µM
  IC50: 24.3 nM
Second compound 10 µM
  IC50: 25.3 nM
Second compound 0.0316 µM, first compound 0.000316 µM
  viability, T/C: 104%
Second compound 0.0316 µM, first compound 0.001 µM
  viability, T/C: 105%
[1]
  viability, T/C: 102%
[2]
  viability, T/C: 102%
[3]
  viability, T/C: 39.4%
[4]
  viability, T/C: 15.8%
Second compound 0.1 µM, first compound 0.000316 µM
  viability, T/C: 103%
Second compound 0.1 µM, first compound 0.001 µM
  viability, T/C: 113%
[7]
  viability, T/C: 108%
[8]
  viability, T/C: 99.9%
[9]
  viability, T/C: 40.2%
[10]
  viability, T/C: 21.1%
Second compound 0.316 µM, first compound 0.000316 µM
  viability, T/C: 112%
Second compound 0.316 µM, first compound 0.001 µM
  viability, T/C: 112%
[13]
  viability, T/C: 100%
[14]
  viability, T/C: 91.3%
[15]
  viability, T/C: 34.1%
[16]
  viability, T/C: 17.8%
Second compound 1 µM, first compound 0.000316 µM
  viability, T/C: 124%
Second compound 1 µM, first compound 0.001 µM
  viability, T/C: 96.4%
[19]
  viability, T/C: 105%
[20]
  viability, T/C: 100%
[21]
  viability, T/C: 42.2%
[22]
  viability, T/C: 17.6%
Second compound 3.16 µM, first compound 0.000316 µM
  viability, T/C: 120%
Second compound 3.16 µM, first compound 0.001 µM
  viability, T/C: 100%
[25]
  viability, T/C: 109%
[26]
  viability, T/C: 94.1%
[27]
  viability, T/C: 37%
[28]
  viability, T/C: 17.5%
Second compound 10 µM, first compound 0.000316 µM
  viability, T/C: 108%
Second compound 10 µM, first compound 0.001 µM
  viability, T/C: 100%
[31]
  viability, T/C: 98.2%
[32]
  viability, T/C: 91.9%
[33]
  viability, T/C: 39.8%
[34]
  viability, T/C: 23.2%

## CNCc1ccc(-c2[nH]c3cc(F)cc4c3c2CCNC4=O)cc1 + Cc1cccc(N(C)C(=O)C2C(O)CCN2c2nc(C)cc(C(F)(F)F)c2C#N)c1
Second compound 0.0316 µM
  IC50: > 10000 nM
Second compound 0.1 µM
  IC50: > 10000 nM
Second compound 0.316 µM
  IC50: > 10000 nM
Second compound 1 µM
  IC50: > 10000 nM
Second compound 3.16 µM
  IC50: > 10000 nM
Second compound 10 µM
  IC50: > 10000 nM
[3]
  viability, T/C: 107%
[4]
  viability, T/C: 104%
[5]
  viability, T/C: 107%
[6]
  viability, T/C: 106%
Second compound 0.0316 µM, first compound 3.16 µM
  viability, T/C: 107%
Second compound 0.0316 µM, first compound 10 µM
  viability, T/C: 107%
[9]
  viability, T/C: 108%
[10]
  viability, T/C: 110%
[11]
  viability, T/C: 103%
[12]
  viability, T/C: 101%
Second compound 0.1 µM, first compound 3.16 µM
  viability, T/C: 106%
Second compound 0.1 µM, first compound 10 µM
  viability, T/C: 105%
[15]
  viability, T/C: 120%
[16]
  viability, T/C: 104%
[17]
  viability, T/C: 104%
[18]
  viability, T/C: 105%
Second compound 0.316 µM, first compound 3.16 µM
  viability, T/C: 113%
Second compound 0.316 µM, first compound 10 µM
  viability, T/C: 98.9%
[21]
  viability, T/C: 108%
[22]
  viability, T/C: 94.9%
[23]
  viability, T/C: 104%
[24]
  viability, T/C: 114%
Second compound 1 µM, first compound 3.16 µM
  viability, T/C: 106%
Second compound 1 µM, first compound 10 µM
  viability, T/C: 107%
[27]
  viability, T/C: 110%
[28]
  viability, T/C: 96.5%
[29]
  viability, T/C: 102%
[30]
  viability, T/C: 108%
Second compound 3.16 µM, first compound 3.16 µM
  viability, T/C: 107%
Second compound 3.16 µM, first compound 10 µM
  viability, T/C: 99.3%
[33]
  viability, T/C: 109%
[34]
  viability, T/C: 95.2%
[35]
  viability, T/C: 104%
[36]
  viability, T/C: 101%
Second compound 10 µM, first compound 3.16 µM
  viability, T/C: 91.4%
Second compound 10 µM, first compound 10 µM
  viability, T/C: 98.6%
